Test results published in paper PMC8347172, “Optimization and Validation of an In Vitro Standardized Glycogen Phosphorylase Activity Assay” (Molecules, 2021).

Tests used:
[1] = target: T1, rabbit muscle glycogen phosphorylase a (GPa) (Oryctolagus cuniculus, UniProt P00489); experiment: colorimetric phosphate release assay (BIOMOL Green), glycogen synthesis direction, […] °C, no glucose; assay type: biochemical
T1 construct: gene PYGM
T1 sequence (P00489 2-843): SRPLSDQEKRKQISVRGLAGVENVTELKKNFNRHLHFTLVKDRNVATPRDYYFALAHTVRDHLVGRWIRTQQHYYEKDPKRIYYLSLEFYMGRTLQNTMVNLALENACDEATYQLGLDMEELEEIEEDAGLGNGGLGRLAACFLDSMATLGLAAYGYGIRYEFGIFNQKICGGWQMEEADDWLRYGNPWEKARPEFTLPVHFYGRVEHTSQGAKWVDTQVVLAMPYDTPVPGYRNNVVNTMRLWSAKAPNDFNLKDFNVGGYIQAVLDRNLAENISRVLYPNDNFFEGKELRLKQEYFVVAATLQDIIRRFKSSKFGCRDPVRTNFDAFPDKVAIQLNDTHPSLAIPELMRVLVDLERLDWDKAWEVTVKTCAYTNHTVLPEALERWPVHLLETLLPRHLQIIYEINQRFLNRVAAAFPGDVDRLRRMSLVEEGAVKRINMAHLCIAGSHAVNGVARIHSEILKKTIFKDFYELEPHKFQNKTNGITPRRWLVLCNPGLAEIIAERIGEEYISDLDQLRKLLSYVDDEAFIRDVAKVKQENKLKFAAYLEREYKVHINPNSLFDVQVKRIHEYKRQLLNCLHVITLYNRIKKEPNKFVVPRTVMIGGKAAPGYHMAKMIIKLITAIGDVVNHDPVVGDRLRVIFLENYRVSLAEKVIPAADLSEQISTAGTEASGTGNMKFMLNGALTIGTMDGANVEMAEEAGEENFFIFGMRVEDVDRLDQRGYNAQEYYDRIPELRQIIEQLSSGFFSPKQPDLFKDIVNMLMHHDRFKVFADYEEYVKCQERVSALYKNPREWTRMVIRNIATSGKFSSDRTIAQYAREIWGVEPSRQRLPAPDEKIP

[2] = target: T1, rabbit muscle glycogen phosphorylase a (GPa); experiment: colorimetric phosphate release assay (BIOMOL Green); percent inhibition at […], […] °C; assay type: biochemical
purified protein = substrate: O=P(O)(O)O[C@H]1O[C@H](CO)[C@@H](O)[C@H](O)[C@H]1O; experiment: purified protein

Molecule `CN(C)C(=O)[C@H](O)[C@H](Cc1ccccc1)NC(=O)c1cc2cc(Cl)ccc2[nH]1` [CP-91149, 5-chloro-N-[(1S,2R)-3-(dimethylamino)-2-hydroxy-3-oxo-1-(phenylmethyl)propyl]-1H-indole-2-carboxamide] has an IC50 [1] of 580 ± 90 nM.

In the case of `O=c1oc2c(O)c(O)cc3c(=O)oc4c(O)c(O)cc1c4c23` [ellagic acid], the “% inhibition at 100 μM” value [2] is reported as 40.6 ± 4.5.

B1: rabbit muscle glycogen phosphorylase a (GPa) (Oryctolagus cuniculus) (protein)
chain: T1 sequence (P00489 2-843)
In the case of B1, the Km (purified protein) is reported as 150 ± 30 µM.
